{"source": "ChEMBL document CHEMBL3232868", "about": "“Programmable DNA-binding small molecules” (Bioorg Med Chem, 2013)", "key": {"[1]": {"assay": "Binding affinity to rat TGF-beta1 promoter AP1 binding site by gel mobility shift and SPR method"}, "[2]": {"assay": "Binding affinity to 5'-WGWWCW-3' DNA (unknown origin)"}, "[3]": {"assay": "Binding affinity to DNA HRE binding site (unknown origin) by DNase 1 footprint titrations method"}, "[4]": {"species": "Homo sapiens", "assay": "Binding affinity to DNA HRE binding site (unknown origin) assessed as inhibition of HIF-1alpha/ARNT heterodimer binding"}, "[5]": {"test_system": "Human papillomavirus type 16", "assay": "Antiviral activity against HPV16 assessed as inhibition of viral replication", "type": "functional, organism-based", "details": "Human papillomavirus 16"}, "[6]": {"assay": "Binding affinity to 5'-TGTTAT-3' DNA (unknown origin)"}}, "note": "pIC50, pKd: −log10 of the molar value."}
{"smiles": "CC(=O)Nc1cc(C(=O)Nc2cc(C(=O)NCCC(=O)Nc3cc(C(=O)Nc4cn(C)c(C(=O)Nc5cc(C(=O)NCCCC(=O)Nc6cc(C(=O)Nc7cc(C(=O)Nc8cc(C(=O)NCCC(=O)Nc9cn(C)c(C(=O)Nc%10cc(C(=O)NCCC(=O)NCCCN(C)C)n(C)c%10)n9)n(C)c8)n(C)c7)n(C)c6)n(C)c5)n4)n(C)c3)n(C)c2)n(C)c1", "values": [{"measurement": "pKd", "setting": "[1]", "result": 8.84}]}
{"smiles": "CN(CCCNC(=O)c1cccc(C(=O)O)c1)CCCNC(=O)c1cc(NC(=O)c2cc(NC(=O)c3cc(NC(=O)c4nc(NC(=O)C[C@@H](CNC(=O)c5cc(NC(=O)c6cc(NC(=O)c7cc(NC(=O)c8nccn8C)cn7C)cn6C)cn5C)NC(=O)c5ccc(-c6ccccc6)cc5)cn4C)cn3C)cn2C)cn1C", "values": [{"measurement": "pIC50", "setting": "[2]", "result": 7.89}]}
{"smiles": "CN(CCCNC(=O)c1cc(NC(=O)c2cc(NC(=O)c3nc(NC(=O)c4cc(NC(=O)[C@H](N)CCNC(=O)c5nc(NC(=O)c6cc(NC(=O)c7cc(NC(=O)c8sccc8Cl)cn7C)cn6C)cn5C)cn4C)cn3C)cn2C)cn1C)CCCNC(=S)Nc1ccc(-c2c3ccc(=O)cc-3oc3cc(O)ccc23)c(C(=O)O)c1", "values": [{"measurement": "Ka", "setting": "[3]", "result": 6.3, "unit": "×10⁹ /M"}, {"measurement": "INH", "setting": "[4]", "result": 0.25, "unit": "nM"}]}
{"smiles": "CN(CCCNC(=O)c1cccc(C(=O)O)c1)CCCNC(=O)c1cc(NC(=O)c2cc(NC(=O)c3cc(NC(=O)c4nc(NC(=O)C[C@@H](CNC(=O)c5cc(NC(=O)c6cc(NC(=O)c7cc(NC(=O)c8nccn8C)cn7C)cn6C)cn5C)NC(=O)c5ccccn5)cn4C)cn3C)cn2C)cn1C", "values": [{"measurement": "pIC50", "setting": "[2]", "result": 7.68}]}
{"smiles": "Cn1cc(NC(=O)c2cc(NC(=O)c3cc(NC=O)cn3C)cn2C)cc1C(=O)NCCC(=N)N", "note": "[STALLIMYCIN]", "values": [{"measurement": "pIC50", "setting": "[5]", "result": 4.48}]}
{"smiles": "CN(CCCNC(=O)c1cccc(C(=O)O)c1)CCCNC(=O)c1cc(NC(=O)c2cc(NC(=O)c3cc(NC(=O)c4nc(NC(=O)C[C@@H](CNC(=O)c5cc(NC(=O)c6cc(NC(=O)c7cc(NC(=O)c8nccn8C)cn7C)cn6C)cn5C)NC(=O)c5ccc([N+](=O)[O-])cc5)cn4C)cn3C)cn2C)cn1C", "values": [{"measurement": "pIC50", "setting": "[2]", "result": 8.00}]}
{"smiles": "CN(CCCN)CCCNC(=O)CCNC(=O)c1cc(NC(=O)c2cc(NC(=O)c3cc(NC(=O)c4cc(NC(=O)CCCNC(=O)c5cc(NC(=O)c6cc(NC(=O)c7cc(NC(=O)c8nccn8C)cn7C)cn6C)cn5C)cn4C)cn3C)cn2C)cn1C", "values": [{"measurement": "pKd", "setting": "[6]", "result": 8.96}]}
